This note sets out measurements from PMC9133015 (Nature Communications, 2022).

Molecules are shown by their SMILES. Values joined by “and” are separate entries in the source; they are usually repeats but may differ in a detail not shown here. Identical values can stand only once.

Holding throughout (assay): Kinase inhibitor specificity profiling (Reaction Biology Corporation)
Holding throughout (type): biochemical
Common to all, as to design: % Enzyme Activity (relative to DMSO controls): concentration or dose not given beside the values

Assay [1] deals with T1, panel of 370 protein kinases (Homo sapiens, UniProt Q13554).
T1 construct: purchased Reaction Biology Corporation (assay service)
The following applies: 2 h, kinase CAMK2b; read-out: % Enzyme Activity (relative to DMSO controls).

Assay [2] addresses T2, panel of 370 protein kinases (Homo sapiens, UniProt Q15303).
T2 construct: purchased Reaction Biology Corporation (assay service)
The following applies: 2 h, kinase ERBB4/HER4; read-out: % Enzyme Activity (relative to DMSO controls).

Assay [3] deals with T3, panel of 370 protein kinases (Homo sapiens, UniProt P49674).
T3 construct: purchased Reaction Biology Corporation (assay service)
The following applies: 2 h, kinase CK1epsilon; read-out: % Enzyme Activity (relative to DMSO controls).

The target of assay [4] is T4, panel of 370 protein kinases (Homo sapiens, UniProt O43781).
T4 construct: purchased Reaction Biology Corporation (assay service)
As to conditions: 2 h, kinase DYRK3; read-out: % Enzyme Activity (relative to DMSO controls).

The target in assay [5] is T5, panel of 370 protein kinases (Homo sapiens, UniProt O94921).
T5 construct: purchased Reaction Biology Corporation (assay service)
The following applies: kinase CDK14/cyclin Y (PFTK1).

Assay [6] addresses T6, panel of 370 protein kinases (Homo sapiens, UniProt P29323).
T6 construct: purchased Reaction Biology Corporation (assay service)
The following applies: kinase EPHB2.

Assay [7] addresses T7, panel of 370 protein kinases (Homo sapiens, UniProt P19784).
T7 construct: purchased Reaction Biology Corporation (assay service)
The following applies: 2 h, kinase CK2a2; read-out: % Enzyme Activity (relative to DMSO controls).

Assay [8] addresses T8, panel of 370 protein kinases (Homo sapiens, UniProt Q96NX5).
T8 construct: purchased Reaction Biology Corporation (assay service)
The following applies: 2 h, kinase CAMK1g; read-out: % Enzyme Activity (relative to DMSO controls).

Assay [9] addresses T9, panel of 370 protein kinases (Homo sapiens, UniProt P57078).
T9 construct: purchased Reaction Biology Corporation (assay service)
The following applies: 2 h, kinase RIPK4; read-out: % Enzyme Activity (relative to DMSO controls).

Assay [10] deals with T10, panel of 370 protein kinases (Homo sapiens, UniProt P50613).
T10 construct: purchased Reaction Biology Corporation (assay service)
The following applies: 2 h, kinase CDK7/cyclin H; read-out: % Enzyme Activity (relative to DMSO controls).

The target of assay [11] is T11, panel of 370 protein kinases (Homo sapiens, UniProt P29376).
T11 construct: purchased Reaction Biology Corporation (assay service)
As to conditions: 2 h, kinase TYK1/LTK; read-out: % Enzyme Activity (relative to DMSO controls).

The target of assay [12] is T12, panel of 370 protein kinases (Homo sapiens, UniProt Q02763).
T12 construct: purchased Reaction Biology Corporation (assay service)
The following applies: 2 h, kinase TIE2/TEK; read-out: % Enzyme Activity (relative to DMSO controls).

In assay [13] the target is T13, panel of 370 protein kinases (Homo sapiens, UniProt P78368).
T13 construct: purchased Reaction Biology Corporation (assay service)
As to conditions: kinase CK1g2.

For assay [14], the target named is T14, panel of 370 protein kinases (Homo sapiens, UniProt Q86Y07).
T14 construct: purchased Reaction Biology Corporation (assay service)
The following applies: 2 h, kinase VRK2; read-out: % Enzyme Activity (relative to DMSO controls).

Assay [15] deals with T15, panel of 370 protein kinases (Homo sapiens, UniProt Q9Y5S2).
T15 construct: purchased Reaction Biology Corporation (assay service)
As to conditions: 2 h, kinase MRCKb/CDC42BPB; read-out: % Enzyme Activity (relative to DMSO controls).

For assay [16], the target named is T16, panel of 370 protein kinases (Homo sapiens, UniProt P37173).
T16 construct: purchased Reaction Biology Corporation (assay service)
The following applies: 2 h, kinase TGFBR2; read-out: % Enzyme Activity (relative to DMSO controls).

Assay [17] has as its target T17, panel of 370 protein kinases (Homo sapiens, UniProt Q6P2M8).
T17 construct: purchased Reaction Biology Corporation (assay service)
As to conditions: kinase CAMK1b.

The target in assay [18] is T18, panel of 370 protein kinases (Homo sapiens, UniProt P06241).
T18 construct: purchased Reaction Biology Corporation (assay service)
The following applies: 2 h, kinase FYN; read-out: % Enzyme Activity (relative to DMSO controls).

Assay [19] deals with T19, panel of 370 protein kinases (Homo sapiens, UniProt Q96PF2).
T19 construct: purchased Reaction Biology Corporation (assay service)
The following applies: 2 h, kinase TSSK2; read-out: % Enzyme Activity (relative to DMSO controls).

Assay [20] concerns the target T20, panel of 370 protein kinases (Homo sapiens, UniProt Q16816).
T20 construct: purchased Reaction Biology Corporation (assay service)
The following applies: 2 h, kinase PHKg1; read-out: % Enzyme Activity (relative to DMSO controls).

Assay [21] has as its target T21, panel of 370 protein kinases (Homo sapiens, UniProt Q9NYL2).
T21 construct: purchased Reaction Biology Corporation (assay service)
The following applies: 2 h, kinase ZAK/MLTK; read-out: % Enzyme Activity (relative to DMSO controls).

Assay [22] has as its target T22, panel of 370 protein kinases (Homo sapiens, UniProt Q7L7X3).
T22 construct: purchased Reaction Biology Corporation (assay service)
As to conditions: 2 h, kinase TAOK1; read-out: % Enzyme Activity (relative to DMSO controls).

T6 sequence (P29323 19-1055): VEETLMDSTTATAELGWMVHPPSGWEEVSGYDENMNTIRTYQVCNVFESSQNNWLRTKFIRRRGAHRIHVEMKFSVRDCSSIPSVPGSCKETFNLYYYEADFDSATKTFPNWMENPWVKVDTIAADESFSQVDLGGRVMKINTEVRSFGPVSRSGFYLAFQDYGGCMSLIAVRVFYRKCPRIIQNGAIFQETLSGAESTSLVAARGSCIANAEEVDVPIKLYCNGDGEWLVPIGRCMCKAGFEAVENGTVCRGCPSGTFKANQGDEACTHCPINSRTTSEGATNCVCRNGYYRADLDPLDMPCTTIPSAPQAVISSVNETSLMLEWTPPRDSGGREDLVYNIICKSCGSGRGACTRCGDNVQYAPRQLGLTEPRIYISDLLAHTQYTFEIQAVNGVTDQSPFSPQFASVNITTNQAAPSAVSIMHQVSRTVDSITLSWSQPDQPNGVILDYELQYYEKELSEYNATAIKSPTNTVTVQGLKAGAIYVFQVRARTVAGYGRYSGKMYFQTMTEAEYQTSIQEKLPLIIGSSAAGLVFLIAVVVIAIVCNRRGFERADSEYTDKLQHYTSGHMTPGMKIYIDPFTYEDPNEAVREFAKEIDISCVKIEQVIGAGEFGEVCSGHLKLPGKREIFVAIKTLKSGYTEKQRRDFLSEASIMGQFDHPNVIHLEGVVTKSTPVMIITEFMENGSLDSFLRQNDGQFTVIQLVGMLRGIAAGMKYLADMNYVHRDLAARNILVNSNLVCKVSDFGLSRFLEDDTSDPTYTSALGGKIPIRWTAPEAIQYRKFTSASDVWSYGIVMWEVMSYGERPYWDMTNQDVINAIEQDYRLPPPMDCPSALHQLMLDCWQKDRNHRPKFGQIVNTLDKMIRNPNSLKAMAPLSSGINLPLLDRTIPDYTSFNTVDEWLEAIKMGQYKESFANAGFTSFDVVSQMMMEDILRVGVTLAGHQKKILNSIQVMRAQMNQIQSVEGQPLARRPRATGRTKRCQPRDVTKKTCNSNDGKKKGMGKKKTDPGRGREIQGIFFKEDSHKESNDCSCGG
T17 sequence (Q6P2M8 whole entry): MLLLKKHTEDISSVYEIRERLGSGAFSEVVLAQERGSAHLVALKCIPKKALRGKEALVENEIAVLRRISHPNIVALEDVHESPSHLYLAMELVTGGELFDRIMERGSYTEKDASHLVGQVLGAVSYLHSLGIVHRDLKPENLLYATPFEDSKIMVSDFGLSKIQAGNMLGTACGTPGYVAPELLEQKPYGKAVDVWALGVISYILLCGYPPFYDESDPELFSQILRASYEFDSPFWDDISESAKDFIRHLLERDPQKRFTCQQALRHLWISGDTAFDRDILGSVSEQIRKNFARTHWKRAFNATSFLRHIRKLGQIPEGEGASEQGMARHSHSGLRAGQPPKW
T5 sequence (O94921 whole entry): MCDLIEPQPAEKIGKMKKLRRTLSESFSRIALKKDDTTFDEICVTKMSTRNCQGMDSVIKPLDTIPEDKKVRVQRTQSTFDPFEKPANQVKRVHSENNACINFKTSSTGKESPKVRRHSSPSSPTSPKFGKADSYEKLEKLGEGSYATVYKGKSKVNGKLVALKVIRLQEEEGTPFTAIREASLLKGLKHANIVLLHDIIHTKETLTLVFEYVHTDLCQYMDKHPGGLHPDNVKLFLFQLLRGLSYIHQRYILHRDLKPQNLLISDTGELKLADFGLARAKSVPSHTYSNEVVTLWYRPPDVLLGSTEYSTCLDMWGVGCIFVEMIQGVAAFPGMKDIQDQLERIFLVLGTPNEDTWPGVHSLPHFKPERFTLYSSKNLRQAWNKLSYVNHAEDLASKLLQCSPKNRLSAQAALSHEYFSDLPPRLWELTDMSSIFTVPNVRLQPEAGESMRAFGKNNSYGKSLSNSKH
T13 sequence (P78368 whole entry): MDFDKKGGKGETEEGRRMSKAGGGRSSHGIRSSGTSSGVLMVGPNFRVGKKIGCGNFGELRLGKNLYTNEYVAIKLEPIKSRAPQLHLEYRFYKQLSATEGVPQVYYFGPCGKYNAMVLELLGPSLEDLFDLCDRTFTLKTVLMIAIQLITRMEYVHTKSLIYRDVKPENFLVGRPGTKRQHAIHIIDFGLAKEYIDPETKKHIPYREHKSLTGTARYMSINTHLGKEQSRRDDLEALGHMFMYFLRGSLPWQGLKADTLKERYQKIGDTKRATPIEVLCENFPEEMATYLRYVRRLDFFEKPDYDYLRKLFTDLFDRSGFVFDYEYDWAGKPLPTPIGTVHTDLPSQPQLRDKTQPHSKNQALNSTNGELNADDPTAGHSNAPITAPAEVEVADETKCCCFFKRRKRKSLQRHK
T10 sequence (P50613 whole entry): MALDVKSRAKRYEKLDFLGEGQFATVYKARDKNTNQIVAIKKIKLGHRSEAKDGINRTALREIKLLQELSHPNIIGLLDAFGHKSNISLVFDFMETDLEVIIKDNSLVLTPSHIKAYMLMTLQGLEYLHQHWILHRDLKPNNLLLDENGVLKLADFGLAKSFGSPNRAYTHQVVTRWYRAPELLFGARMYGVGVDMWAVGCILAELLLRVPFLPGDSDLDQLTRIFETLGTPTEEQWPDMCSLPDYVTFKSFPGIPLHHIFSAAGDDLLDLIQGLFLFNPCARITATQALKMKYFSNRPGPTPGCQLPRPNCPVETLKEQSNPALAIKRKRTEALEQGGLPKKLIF
T3 sequence (P49674 whole entry): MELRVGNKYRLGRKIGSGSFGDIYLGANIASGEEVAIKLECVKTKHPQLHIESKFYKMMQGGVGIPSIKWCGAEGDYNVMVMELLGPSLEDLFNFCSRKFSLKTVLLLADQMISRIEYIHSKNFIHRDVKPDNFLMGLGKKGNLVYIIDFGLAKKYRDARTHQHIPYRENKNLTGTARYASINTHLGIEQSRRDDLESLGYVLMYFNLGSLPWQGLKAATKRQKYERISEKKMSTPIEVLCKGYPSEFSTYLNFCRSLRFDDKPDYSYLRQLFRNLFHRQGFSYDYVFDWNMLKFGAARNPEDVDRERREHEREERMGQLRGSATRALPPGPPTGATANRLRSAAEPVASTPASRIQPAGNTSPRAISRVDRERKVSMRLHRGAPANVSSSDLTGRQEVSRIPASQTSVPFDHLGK
T15 sequence (Q9Y5S2 whole entry): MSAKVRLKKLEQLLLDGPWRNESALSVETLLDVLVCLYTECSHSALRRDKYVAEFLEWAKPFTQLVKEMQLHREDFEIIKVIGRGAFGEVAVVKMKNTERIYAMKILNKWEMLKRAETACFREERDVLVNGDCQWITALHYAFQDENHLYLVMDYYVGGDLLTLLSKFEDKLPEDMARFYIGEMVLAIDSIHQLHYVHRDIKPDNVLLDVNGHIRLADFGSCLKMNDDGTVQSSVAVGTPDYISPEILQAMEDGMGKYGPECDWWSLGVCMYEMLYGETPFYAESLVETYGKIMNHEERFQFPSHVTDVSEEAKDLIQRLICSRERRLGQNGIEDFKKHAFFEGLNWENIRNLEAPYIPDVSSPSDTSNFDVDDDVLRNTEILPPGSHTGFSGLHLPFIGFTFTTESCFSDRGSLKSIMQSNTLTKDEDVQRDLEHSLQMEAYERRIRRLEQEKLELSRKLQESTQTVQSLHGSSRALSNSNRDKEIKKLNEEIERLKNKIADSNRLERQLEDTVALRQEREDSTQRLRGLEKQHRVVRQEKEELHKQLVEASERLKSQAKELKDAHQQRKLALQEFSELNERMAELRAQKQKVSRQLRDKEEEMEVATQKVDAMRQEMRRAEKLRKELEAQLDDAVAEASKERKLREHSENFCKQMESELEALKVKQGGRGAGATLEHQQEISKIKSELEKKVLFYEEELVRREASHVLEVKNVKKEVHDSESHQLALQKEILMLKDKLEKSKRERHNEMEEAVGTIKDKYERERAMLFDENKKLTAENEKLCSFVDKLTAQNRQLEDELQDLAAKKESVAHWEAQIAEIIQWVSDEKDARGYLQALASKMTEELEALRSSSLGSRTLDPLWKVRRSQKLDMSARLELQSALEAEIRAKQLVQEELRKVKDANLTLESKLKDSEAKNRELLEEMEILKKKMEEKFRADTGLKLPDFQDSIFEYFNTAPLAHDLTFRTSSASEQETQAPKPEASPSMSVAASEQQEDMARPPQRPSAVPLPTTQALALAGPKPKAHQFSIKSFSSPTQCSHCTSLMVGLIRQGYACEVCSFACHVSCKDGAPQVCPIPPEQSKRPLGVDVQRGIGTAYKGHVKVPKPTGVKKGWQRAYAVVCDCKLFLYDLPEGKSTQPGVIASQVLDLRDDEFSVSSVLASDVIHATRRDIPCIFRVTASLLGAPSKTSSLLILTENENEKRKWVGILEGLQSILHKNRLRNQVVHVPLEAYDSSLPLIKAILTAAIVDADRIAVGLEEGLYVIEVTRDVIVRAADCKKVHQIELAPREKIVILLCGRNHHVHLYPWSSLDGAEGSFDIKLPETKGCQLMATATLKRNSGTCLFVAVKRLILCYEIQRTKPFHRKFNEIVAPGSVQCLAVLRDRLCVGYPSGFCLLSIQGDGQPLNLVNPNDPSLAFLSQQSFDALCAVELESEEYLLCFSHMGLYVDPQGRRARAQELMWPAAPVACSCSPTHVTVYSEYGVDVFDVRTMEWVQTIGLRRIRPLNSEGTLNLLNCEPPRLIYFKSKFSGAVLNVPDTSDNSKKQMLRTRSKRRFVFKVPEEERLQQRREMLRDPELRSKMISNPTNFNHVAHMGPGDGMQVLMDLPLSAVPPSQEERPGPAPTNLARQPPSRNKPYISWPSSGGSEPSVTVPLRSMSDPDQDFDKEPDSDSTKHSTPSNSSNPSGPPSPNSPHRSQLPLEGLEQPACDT

Regarding `CCN1CCN(C(=O)c2ccc(Nc3ncc(F)c(-c4ccc5nc(N(C)C)sc5c4)n3)nc2)CC1` [YK-2-69], the remaining activity at 1 µM in assay [1] was 78.5%; in assay [2] it was 88.5%; in [3], 111%; in [4], 50.9%; in [7], 51.4%; in assay [8], 56.8%. The remaining activity at 1 µM in assay [9] was determined as 92%; in assay [10], 99.1%; in assay [11], 109%; in [12], 87.6%; in assay [14] it was 93.1%; in assay [15], 105%. Besides, the remaining activity at 1 µM in assay [16] was found to be 104%; in assay [18], 104%; in assay [19], 96.7%; in assay [20], 89.4%; in assay [21], 107%; in [22], 108%. In addition, the “% Enzyme Activity (relative to DMSO controls)” value is 116.35% and 115.11% in assay [5]; 102.42% and 102.08% in assay [6]; 92.19% and 91.13% in [13]; 94.21% and 93.36% in assay [17].
